# Assay results from patent publication US7511061B2, “Triazoles as farnesyl transferase inhibitors” (Janssen Pharmaceutica N.V., priority 1999, dated 2009).
# Target: farnesyl protein transferase (FPTase) (Homo sapiens, UniProt P49354+P49356)
# Test: In vitro assay for inhibition of farnesyl protein transferase
# Assay type: biochemical
# Conditions: test dose of 10^−7 M
# Experimental: An in vitro assay for inhibition of farnesyl transferase was performed essentially as described in WO 98/40383, pages 33-34.
row,inhibition at 0.1 µM,Compound
1,≥ 10%,N#Cc1ccc(Cn2cnnc2CN(CCc2ccc(Cl)cc2)C(=O)c2ccc3ccccc3n2)cc1 [compound 264]
2,≥ 10%,N#Cc1ccc(Cn2cnnc2CN(CCc2ccc(Br)cc2)C(=O)c2ccc3ccccc3n2)cc1 [compound 269]
3,≥ 10%,Cc1cc(C(=O)N(Cc2ccc(F)cc2F)Cc2nncn2Cc2ccc(C#N)cc2)ccc1Br [compound 277]
4,≥ 10%,N#Cc1ccc(Cn2cnnc2CN(Cc2cc(F)cc(F)c2)C(=O)c2ccc3ccccc3n2)cc1 [compound 305]
5,≥ 10%,N#Cc1ccc(Cn2cnnc2CN(Cc2ccc(F)cc2F)C(=O)c2cccc(-c3ccsc3)c2)cc1 [compound 239]
6,≥ 10%,N#Cc1ccc(Cn2cnnc2CN(Cc2c(F)cccc2F)c2ccc(Oc3ccccc3)cc2)cc1 [compound 234]
7,≥ 10%,N#Cc1ccc(Cn2cnnc2CN(Cc2ccc(F)cc2F)C(=O)c2cc3ccccc3o2)cc1 [compound 299]
8,≥ 10%,N#Cc1ccc(Cn2cnnc2CN(Cc2ccc(F)cc2)C(=O)c2ccc3ccccc3n2)cc1 [compound 297]
9,≥ 10%,N#Cc1ccc(Cn2cnnc2CN(CCc2ccc(Br)cc2)C(=O)c2cc3ccccc3s2)cc1 [compound 223]
10,≥ 10%,Cc1ccc(Br)cc1C(=O)N(Cc1ccc(F)cc1F)Cc1nncn1Cc1ccc(C#N)cc1 [compound 314]
11,≥ 10%,N#Cc1ccc(Cn2cnnc2CN(Cc2ccc(F)cc2F)C(=O)c2cccc(-c3ccsc3)n2)cc1 [compound 278]
12,≥ 10%,Cc1ccc(C(=O)N(Cc2ccc(F)cc2F)Cc2nncn2Cc2ccc(C#N)cc2)cc1-c1cc(Cl)ccc1Cl [compound 221]
13,≥ 10%,N#Cc1ccc(Cn2cnnc2CN(Cc2ccc(F)cc2F)C(=O)c2ccc(Br)s2)cc1 [compound 218]
14,≥ 10%,N#Cc1ccc(Cn2cnnc2CN(Cc2ccc(F)cc2F)C(=O)c2ccc(-c3cccc(C(F)(F)F)c3)o2)cc1 [compound 292]
15,≥ 10%,N#Cc1ccc(Cn2cnnc2CN(CCc2ccc(Br)cc2)C(=O)c2ccc3c(c2)OCO3)cc1 [compound 244]
16,≥ 10%,COc1ccc(CCN(Cc2nncn2Cc2ccc(C#N)cc2)C(=O)c2ccc3ccccc3n2)cc1 [compound 236]
17,≥ 10%,N#Cc1ccc(Cn2cnnc2CN(Cc2ccc(F)cc2F)C(=O)c2ccc(-c3ccc(F)c(Cl)c3)o2)cc1 [compound 272]
18,≥ 10%,N#Cc1ccc(Cn2cnnc2CN(Cc2ccc(F)cc2F)C(=O)c2cccc(-c3cc(Cl)cc(Cl)c3)c2)cc1 [compound 283]
19,≥ 10%,N#Cc1ccc(Cn2cnnc2CN(Cc2ccc(F)cc2F)C(=O)c2cccc(Br)c2)cc1 [compound 243]
20,≥ 10%,N#Cc1ccc(Cn2cnnc2CN(Cc2ccc(F)cc2F)C(=O)c2ccc(-c3ccccc3C(F)(F)F)o2)cc1 [compound 281]
21,≥ 10%,N#Cc1ccc(Cn2cnnc2CN(Cc2ccc(F)cc2F)C(=O)c2cc(Br)cc3c2OCC3)cc1 [compound 291]
22,≥ 10%,N#Cc1ccc(Cn2cnnc2CN(Cc2ccc(F)cc2F)C(=O)c2ccc3ccccc3c2)cc1 [compound 315]
23,≥ 10%,COc1ccc2oc(C(=O)N(Cc3ccc(F)cc3F)Cc3nncn3Cc3ccc(C#N)cc3)cc2c1 [compound 268]
24,≥ 10%,Cc1cccc(C(=O)N(Cc2ccc(F)cc2F)Cc2nncn2Cc2ccc(C#N)cc2)c1 [compound 253]
25,≥ 10%,N#Cc1ccc(Cn2cnnc2CN(CCc2ccc(Br)cc2)C(=O)c2ccc(Br)o2)cc1 [compound 219]
26,≥ 10%,Cc1ccc(C(=O)N(CCc2ccc(Br)cc2)Cc2nncn2Cc2ccc(C#N)cc2)cc1C [compound 233]

row,inhibition at 0.1 µM,Compound
1,≥ 10%,N#Cc1ccc(Cn2cnnc2CN(Cc2cccc(Cl)c2)C(=O)c2ccc3ccccc3n2)cc1 [compound 275]
2,≥ 10%,COc1cc(Cn2cnnc2CN(Cc2ccc(F)cc2F)C(=O)c2ccc3ccccc3n2)ccc1[N+](=O)[O-] [compound 290]
3,≥ 10%,N#Cc1ccc(Cn2cnnc2CN(Cc2c(F)cccc2F)C(=O)c2ccc3ccccc3n2)cc1 [compound 303]
4,≥ 10%,N#Cc1ccc(Cn2cnnc2CN(Cc2ccc(F)cc2F)C(=O)C2=Cc3ccccc3OC2)cc1 [compound 289]
5,≥ 10%,CC1=C(C(=O)N(Cc2ccc(F)cc2F)Cc2nncn2Cc2ccc(C#N)cc2)Cc2ccccc21 [compound 258]
6,≥ 10%,COc1ccc2oc(C(=O)N(CCc3ccc(Br)cc3)Cc3nncn3Cc3ccc(C#N)cc3)cc2c1 [compound 237]
7,≥ 10%,N#Cc1ccc(Cn2cnnc2CN(CCc2ccc(Br)cc2)C(=O)c2cccc(Br)c2)cc1 [compound 222]
8,≥ 10%,N#Cc1ccc(Cn2cnnc2CN(Cc2ccc(F)cc2F)C(=O)c2ccc(-c3ccc(F)cc3)o2)cc1 [compound 274]
9,≥ 10%,N#Cc1ccc(Cn2cnnc2CN(Cc2ccc(Br)cc2)C(=O)c2ccc3ccccc3n2)cc1 [compound 304]
10,≥ 10%,N#Cc1ccc(Cn2cnnc2CN(Cc2ccc(F)cc2F)C(=O)/C=C/c2ccc(Cl)c(Cl)c2)cc1 [compound 250]
11,≥ 10%,N#Cc1ccc(Cn2cnnc2CN(Cc2ccc(F)cc2F)C(=O)c2cccc(Cl)c2)cc1 [compound 246]
12,≥ 10%,COc1cc(C(=O)N(Cc2ccc(F)cc2F)Cc2nncn2Cc2ccc(C#N)cc2)nc2ccccc12 [compound 298]
13,≥ 10%,Cc1nnc(CN(Cc2ccc(F)cc2F)C(=O)c2ccc3ccccc3n2)n1-c1ccc(C#N)cc1 [compound 313]
14,≥ 10%,COC(=O)c1cc(C)nc(N(Cc2nnc[nH]2)Cc2ccc(F)cc2F)[n+]1Cc1ccc(C#N)cc1 [compound 255]
15,≥ 10%,N#Cc1ccc(Cn2cnnc2CN(CCc2ccc(Br)cc2)C(=O)c2cc3ccccc3o2)cc1 [compound 251]
16,≥ 10%,COc1cc(C(=O)N(CCc2ccc(Br)cc2)Cc2nncn2Cc2ccc(C#N)cc2)nc2ccccc12 [compound 220]
17,≥ 10%,Cc1ccc(C(=O)N(Cc2ccc(F)cc2F)Cc2nncn2Cc2ccc(C#N)cc2)cc1Br [compound 309]
18,≥ 10%,N#Cc1ccc(Cn2cnnc2CN(Cc2ccc(F)cc2F)C(=O)c2nc3ccccc3nc2O)cc1 [compound 301]
19,≥ 10%,N#Cc1ccc(Cn2cnnc2CN(Cc2ccc(F)cc2F)C(=O)/C=C/c2ccccc2Cl)cc1 [compound 249]
20,≥ 10%,N#Cc1ccc(Cn2cnnc2CN(C(=O)c2ccc3ccccc3n2)c2ccc(N3CCOCC3)cc2)cc1 [compound 248]
21,≥ 10%,N#Cc1ccc(Cn2cnnc2CN(Cc2ccc(F)cc2F)C(=O)/C(=C/c2ccccc2)c2ccccc2)cc1 [compound 266]
22,≥ 10%,N#Cc1ccc(Cn2cnnc2CN(Cc2ccc(Cl)cc2Cl)C(=O)c2ccc3ccccc3n2)cc1 [compound 284]
23,≥ 10%,O=C(c1ccc2ccccc2n1)N(Cc1ccc(F)cc1F)Cc1nncn1Cc1ccc([N+](=O)[O-])cc1 [compound 273]
24,≥ 10%,N#Cc1ccc(Cn2cnnc2CN(Cc2ccc(F)cc2F)C(=O)c2cccc(-c3cccc(C(F)(F)F)c3)c2)cc1 [compound 227]
25,≥ 10%,N#Cc1ccc(Cn2cnnc2CN(Cc2ccc(F)cc2F)C(=O)c2ccc(-c3cc(Cl)cc(Cl)c3)o2)cc1 [compound 296]
